Source: US8952024B2, “Herbicidal pyrimidone derivatives” (E I du Pont de Nemours and Company, priority 2009, dated 2015)

Legend:
Assay in all cases: Test B pre-/postemergence plant response
Format in all cases: in vivo
[1] = test system: green foxtail (Setaria viridis)
Method in brief: (§1)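 Greenhouse herbicide screen. Pre- and postemergence (1- to 4-leaf) spray of compound in solvent/surfactant mixture; loam–sand soil for pre, peat/vermiculite medium for post. Visual control rating 0–100 at 13 to 15 days after treatment.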

[2] = test system: goosegrass (Eleusine indica)
Method in brief: as §1

[3] = test system: woolly cupgrass (Eriochloa villosa)
Method in brief: as §1

[4] = test system: soybean (Glycine max); settings: for Plant response rating, Soybean: Postemergence
Method in brief: as §1

[5] = test system: large crabgrass (Digitaria sanguinalis)
Method in brief: as §1

[6] = test system: lambsquarters (Chenopodium album)
Method in brief: as §1

[7] = test system: wheat (Triticum aestivum); settings: for Plant response rating, Wheat: Postemergence
Method in brief: as §1

[8] = test system: ragweed (common ragweed, Ambrosia elatior); settings: for Plant response rating, Ragweed: Postemergence
Method in brief: as §1

[9] = test system: yellow nutsedge (Cyperus esculentus)
Method in brief: as §1

[10] = test system: kochia (Kochia scoparia)
Method in brief: as §1

[11] = test system: johnsongrass (Sorghum halepense)
Method in brief: as §1

[12] = test system: velvetleaf (Abutilon theophrasti); settings: for Plant response rating, Velvetleaf: Postemergence
Method in brief: as §1

[13] = test system: bermudagrass (Cynodon dactylon); settings: for Bermudagrass plant response rating (0 to 100 scale): 0 is no effect
Method in brief: as §1

[14] = Postemergence, 31 g ai/ha, 0 to 100 scale (0 no effect, 100 complete control)
[15] = Postemergence, 125 g ai/ha, scale 0 to 100 (0 no effect, 100 complete control)
[16] = Postemergence, 250 g ai/ha, scale 0 to 100 (0 no effect, 100 complete control), 13 to 15 days
[17] = 31 g ai/ha, 0 to 100 scale (0 no effect, 100 complete control)
[18] = 125 g ai/ha, scale 0 to 100 (0 no effect, 100 complete control)
[19] = 250 g ai/ha, scale 0 to 100 (0 no effect, 100 complete control), 13 to 15 days
[20] = 62 g ai/ha, postemergence, 100 is complete control, 13 to 15 days
[21] = 31 g ai/ha, postemergence, scale 0 to 100, 0 is no effect, 100 is complete control
[22] = 62 g ai/ha, postemergence, 0 is no effect, 100 is complete control, 13 to 15 days
[23] = Postemergence, 250 g ai/ha, scale 0 to 100 (0 no effect, 100 complete control)
[24] = 250 g ai/ha, scale 0 to 100 (0 no effect, 100 complete control)
[25] = Postemergence, 62 g ai/ha, scale 0 to 100 (0 no effect, 100 complete control)
[26] = 62 g ai/ha, scale 0 to 100 (0 no effect, 100 complete control)

O=C1CCCC(O)=C1C(=O)c1cnc(-c2cc(F)cc(F)c2)n(C2CCCCC2)c1=O [Compound 181]
Plant response rating, Foxtail, Green [1, 14]: 70
Plant response rating, Foxtail, Green [1, 15]: 95
Plant response rating, Foxtail, Green [1, 16]: 98
Plant response rating, Goosegrass [2, 14]: 95
Plant response rating, Goosegrass [2, 15]: 100
Plant response rating, Goosegrass [2, 16]: 100
Plant response rating, Cupgrass, Woolly [3, 14]: 80
Plant response rating, Cupgrass, Woolly [3, 15]: 100
Plant response rating, Cupgrass, Woolly [3, 16]: 100
Plant response rating, Soybean [4, 17]: 100
Plant response rating, Soybean [4, 18]: 100
Plant response rating, Soybean [4, 19]: 100
Plant response rating, Crabgrass, Large [5, 14]: 98
Plant response rating, Crabgrass, Large [5, 15]: 100
Plant response rating, Crabgrass, Large [5, 16]: 100
Plant response rating, Lambsquarters [6, 14]: 100
Plant response rating, Lambsquarters [6, 15]: 100
Plant response rating, Lambsquarters [6, 16]: 100
Plant response rating, Wheat [7, 17]: 40
Plant response rating, Wheat [7, 18]: 50
Plant response rating, Wheat [7, 19]: 70
Plant response rating, Ragweed [8, 17]: 98
Plant response rating, Ragweed [8, 18]: 100
Plant response rating, Ragweed [8, 19]: 100
Plant response rating, Nutsedge, Yellow [9, 14]: 60
Plant response rating, Nutsedge, Yellow [9, 15]: 80
Plant response rating, Nutsedge, Yellow [9, 16]: 85
Plant response rating, Kochia [10, 14]: 65
Plant response rating, Kochia [10, 15]: 100
Plant response rating, Kochia [10, 16]: 100
Plant response rating, Johnsongrass [11, 14]: 100
Plant response rating, Johnsongrass [11, 15]: 100
Plant response rating, Johnsongrass [11, 16]: 100
Plant response rating, Velvetleaf [12, 17]: 100
Plant response rating, Velvetleaf [12, 18]: 100
Plant response rating, Velvetleaf [12, 19]: 100
Bermudagrass plant response rating (0 to 100 scale) [13, 20]: 100
Plant response rating, Bermudagrass [13, 14]: 100
Plant response rating, Bermudagrass [13, 15]: 100
Plant response rating, Bermudagrass [13, 16]: 100

COCCn1c(-c2cccc(C)c2)ncc(C(=O)C2=C(O)CCCC2=O)c1=O [Compound 117]
Plant response rating, Foxtail, Green [1, 21]: 50
Foxtail, Green plant response rating (0 to 100 scale) [1, 22]: 70
Plant response rating, Foxtail, Green [1, 15]: 80
Plant response rating, Foxtail, Green [1, 23]: 95
Plant response rating, Goosegrass [2, 21]: 45
Goosegrass plant response rating (0 to 100 scale) [2, 22]: 75
Plant response rating, Goosegrass [2, 15]: 75
Plant response rating, Goosegrass [2, 23]: 85
Plant response rating, Cupgrass, Woolly [3, 21]: 65
Cupgrass, Woolly plant response rating (0 to 100 scale) [3, 22]: 85
Plant response rating, Cupgrass, Woolly [3, 15]: 95
Plant response rating, Cupgrass, Woolly [3, 23]: 98
Soybean plant response rating (0 to 100 scale) [4, 22]: 80
Plant response rating, Soybean [4, 18]: 95
Plant response rating, Soybean [4, 24]: 95
Plant response rating, Crabgrass, Large [5, 21]: 75
Crabgrass, Large plant response rating (0 to 100 scale) [5, 22]: 80
Plant response rating, Crabgrass, Large [5, 15]: 95
Plant response rating, Crabgrass, Large [5, 23]: 95
Plant response rating, Lambsquarters [6, 21]: 95
Lambsquarters plant response rating (0 to 100 scale) [6, 22]: 98
Plant response rating, Lambsquarters [6, 15]: 100
Plant response rating, Lambsquarters [6, 23]: 100
Wheat plant response rating (0 to 100 scale) [7, 22]: 5
Plant response rating, Wheat [7, 18]: 20
Ragweed plant response rating (0 to 100 scale) [8, 22]: 75
Plant response rating, Ragweed [8, 18]: 90
Plant response rating, Ragweed [8, 24]: 98
Plant response rating, Nutsedge, Yellow [9, 21]: 0
Nutsedge, Yellow plant response rating (0 to 100 scale) [9, 22]: 0
Plant response rating, Nutsedge, Yellow [9, 15]: 25
Plant response rating, Nutsedge, Yellow [9, 23]: 35
Plant response rating, Kochia [10, 21]: 45
Kochia plant response rating (0 to 100 scale) [10, 22]: 50
Plant response rating, Kochia [10, 23]: 85
Plant response rating, Johnsongrass [11, 21]: 5
Johnsongrass plant response rating (0 to 100 scale) [11, 22]: 20
Plant response rating, Johnsongrass [11, 23]: 25
Velvetleaf plant response rating (0 to 100 scale) [12, 22]: 85
Plant response rating, Velvetleaf [12, 18]: 95
Plant response rating, Velvetleaf [12, 24]: 100
Plant response rating, Bermudagrass [13, 21]: 75
Bermudagrass plant response rating (0 to 100 scale) [13, 20]: 90
Plant response rating, Bermudagrass [13, 15]: 95
Plant response rating, Bermudagrass [13, 23]: 100

COCCn1c(-c2ccsc2)ncc(C(=O)C2=C(O)C3CCC(C3)C2=O)c1=O (centres unmarked) [Compound 228]
Plant response rating, Foxtail, Green [1, 14]: 85
Plant response rating, Foxtail, Green [1, 25]: 90
Plant response rating, Foxtail, Green [1, 15]: 98
Plant response rating, Foxtail, Green [1, 16]: 100
Plant response rating, Goosegrass [2, 14]: 80
Plant response rating, Goosegrass [2, 25]: 80
Plant response rating, Goosegrass [2, 15]: 85
Plant response rating, Goosegrass [2, 16]: 90
Plant response rating, Cupgrass, Woolly [3, 14]: 75
Plant response rating, Cupgrass, Woolly [3, 25]: 95
Plant response rating, Cupgrass, Woolly [3, 15]: 95
Plant response rating, Cupgrass, Woolly [3, 16]: 98
Plant response rating, Soybean [4, 17]: 95
Plant response rating, Soybean [4, 26]: 98
Plant response rating, Soybean [4, 19]: 100
Plant response rating, Crabgrass, Large [5, 14]: 80
Plant response rating, Crabgrass, Large [5, 25]: 98
Plant response rating, Crabgrass, Large [5, 15]: 98
Plant response rating, Crabgrass, Large [5, 16]: 98
Plant response rating, Lambsquarters [6, 14]: 98
Plant response rating, Lambsquarters [6, 25]: 98
Plant response rating, Lambsquarters [6, 15]: 100
Plant response rating, Lambsquarters [6, 16]: 100
Plant response rating, Wheat [7, 17]: 0
Plant response rating, Wheat [7, 26]: 5
Plant response rating, Wheat [7, 19]: 35
Plant response rating, Ragweed [8, 17]: 70
Plant response rating, Ragweed [8, 26]: 80
Plant response rating, Ragweed [8, 19]: 98
Plant response rating, Nutsedge, Yellow [9, 14]: 40
Plant response rating, Nutsedge, Yellow [9, 25]: 45
Plant response rating, Nutsedge, Yellow [9, 15]: 60
Plant response rating, Nutsedge, Yellow [9, 16]: 70
Plant response rating, Kochia [10, 14]: 90
Plant response rating, Kochia [10, 25]: 100
Plant response rating, Kochia [10, 15]: 100
Plant response rating, Kochia [10, 16]: 100
Plant response rating, Johnsongrass [11, 14]: 75
Plant response rating, Johnsongrass [11, 25]: 75
Plant response rating, Johnsongrass [11, 15]: 95
Plant response rating, Johnsongrass [11, 16]: 100
Plant response rating, Velvetleaf [12, 17]: 80
Plant response rating, Velvetleaf [12, 26]: 100
Plant response rating, Velvetleaf [12, 19]: 100
Plant response rating, Bermudagrass [13, 14]: 80
Plant response rating, Bermudagrass [13, 25]: 85
Plant response rating, Bermudagrass [13, 15]: 90
Plant response rating, Bermudagrass [13, 16]: 95

O=C1CCCC(O)=C1C(=O)c1cnc(-c2cccc(F)c2)n(C2CCCCC2)c1=O [Compound 187]
Plant response rating, Foxtail, Green [1, 14]: 65
Plant response rating, Foxtail, Green [1, 15]: 98
Plant response rating, Foxtail, Green [1, 16]: 98
Plant response rating, Goosegrass [2, 14]: 85
Plant response rating, Goosegrass [2, 15]: 100
Plant response rating, Goosegrass [2, 16]: 100
Plant response rating, Cupgrass, Woolly [3, 14]: 80
Plant response rating, Cupgrass, Woolly [3, 15]: 85
Plant response rating, Cupgrass, Woolly [3, 16]: 95
Plant response rating, Soybean [4, 17]: 98
Plant response rating, Soybean [4, 18]: 100
Plant response rating, Soybean [4, 19]: 100
Plant response rating, Crabgrass, Large [5, 14]: 85
Plant response rating, Crabgrass, Large [5, 15]: 100
Plant response rating, Crabgrass, Large [5, 16]: 100
Plant response rating, Lambsquarters [6, 14]: 98
Plant response rating, Lambsquarters [6, 15]: 100
Plant response rating, Lambsquarters [6, 16]: 100
Plant response rating, Wheat [7, 17]: 0
Plant response rating, Wheat [7, 18]: 5
Plant response rating, Wheat [7, 19]: 5
Plant response rating, Ragweed [8, 17]: 95
Plant response rating, Ragweed [8, 18]: 100
Plant response rating, Ragweed [8, 19]: 100
Plant response rating, Nutsedge, Yellow [9, 14]: 45
Plant response rating, Nutsedge, Yellow [9, 15]: 65
Plant response rating, Nutsedge, Yellow [9, 16]: 75
Plant response rating, Kochia [10, 14]: 40
Plant response rating, Kochia [10, 15]: 70
Plant response rating, Kochia [10, 16]: 80
Plant response rating, Johnsongrass [11, 14]: 90
Plant response rating, Johnsongrass [11, 15]: 100
Plant response rating, Johnsongrass [11, 16]: 100
Plant response rating, Velvetleaf [12, 17]: 90
Plant response rating, Velvetleaf [12, 18]: 100
Plant response rating, Velvetleaf [12, 19]: 100
Bermudagrass plant response rating (0 to 100 scale) [13, 20]: 85
Plant response rating, Bermudagrass [13, 14]: 75
Plant response rating, Bermudagrass [13, 15]: 100
Plant response rating, Bermudagrass [13, 16]: 100
